Results as given in patent US11078462B2, “Perivascular stromal cells from primate pluripotent stem cells” (ReCyte Therapeutics, Inc., priority 2014, dated 2021).
Where a name gives a salt, the structure may show the parent alone.

System: HUVEC+017-PC-M co-cultures
Experiment: Kit co-culture assay to study angiogenesis in vitro (tube formation on MATRIGEL)
Type: cell-based, human
Procedure: A kit has been developed to provide a unique, robust co-culture assay to study angiogenesis in vitro. In this model system, we utilize a unique perivascular stromal cell line (017-PC-M) that when co-cultured with human umbilical vein endothelial cells (HUVEC) results in the rapid formation of large angiogenic networks with long-term stability of 4-6 days without the need for additional growth factors and complex media supplements.
VASCULIFE® assay media: VASCULIFE® basal media plus 10 mM L-glutamine (final concentration)
Assay Protocol: • 1. Four days (Day −4) prior to assay, HUVECs should be thawed and seeded at 3.5×10^4 cells per cm^2 into a 150 cm^2 tissue culture flask containing VASCULIFE® growth media. Incubate cells at 37° C. and 5% CO2. Exchange full volume of media every 1-2 days. • 2. Two days (Day −2) prior to assay, PC-M cells should be thawed and seeded at 10×10^4 cells per cm^2 into a 150 cm^2 tissue culture flask containing VASCULIFE® growth media. Incubate cells at 37° C. and 5% CO2. Exchange full volume of media every 1-2 days. • 3. At Day 0, prepare 96-well plate with MATRIGEL® coating of 50 μL per well. Let plate warm for at least 1 hour prior to seeding cells. • 4. Prepare assay solution: dilute L-glutamine into VASCULIFE® medium. • 5. On Day 0, harvest both HUVECs and PC-M cells. Recommended: Use 5-7.5 mL ACCUTASE® treatment for 3-5 minutes to detach cells, then quench Accutase® with an equivolume of Vasculife® growth media before pelleting cells. • 6. Prepare VASCULIFE® assay media (500 μL per each triplicate condition). • 7. Pellet cells at 250-350 rpm for 5 minutes at room temperature. • 8. Decant media and re-suspend into 1 mL of VASCULIFE® assay media. • 9. Measure cell concentration and viability:
• 10. Mix cells at a ratio of 3:1 HUVECs: 017-PC-M cells and seed at a final density of 37,500 cells per well. For one set of triplicates, mix approximately 85,000 HUVECs with 28,000 017-PC-M cells. • 11. Allow co-culture to adhere at 37° C. for 3-4 hours. • 12. […]

## Cc1ccc(C(=O)Nc2ccc(S(=O)(=O)O)c3cc(S(=O)(=O)O)cc(S(=O)(=O)O)c23)cc1NC(=O)c1cccc(NC(=O)Nc2cccc(C(=O)Nc3cc(C(=O)Nc4ccc(S(=O)(=O)O)c5cc(S(=O)(=O)O)cc(S(=O)(=O)O)c45)ccc3C)c2)c1 [Suramin, suramin hexasodium salt]
Addition of 50 μM Suramin
  reduce tube formation: > 90%

## VEGF
VEGF concentrations ≤2.5 ng/mL or ≥10 ng/mL, monocultures and/or co-cultures
  formation of tubes after addition of VEGF to the assay media: may inhibit formation of tubes

## basic FGF: basic fibroblast growth factor added to the assay media
Concentrations ≥10 ng/mL, monocultures of HUVECs, of 017-PC-M cells and/or co-cultures
  tube formation after addition of basic FGF to the assay media: little to no tube formation
